Data on nine compounds can be found in PMC9959817, “Flow-Based Fmoc-SPPS Preparation and SAR Study of Cathelicidin-PY Reveals Selective Antimicrobial Activity” (Molecules, 2023).

Converted amounts (≈) assume the structure as drawn. Like-named read-outs stand apart in the source and are kept apart here. Where a SMILES comes first, the peptide text is derived from it. Bridges are numbered along the chain shown (N, C = ends). Where no end group is shown, it is not given here. [ ]: non-standard residue; d: D form. Dab = NCC[C@H](N)C(=O)O

What all share (assay): microbe, parasite or virus in culture
In one assay the test system is P. aeruginosa (SVB-B9). The class given is cell-based, Pseudomonas aeruginosa. The note with it: for Minimum Inhibitory Concentration: SVB-B9. An excerpt:
(§1) As we were primarily interested in the clinical potential of cathelicidin-PY (1) and its analogues 2–9, cation-adjusted Mueller-Hinton broth (CAMHB) was implemented during our in vitro antimicrobial screening towards bacteria. However, non-cation adjusted Mueller Hinton broth (MHB) was also implemented to evaluate the cation sensitivity of these AMPs. In each medium, compounds 1–9 were subjected to minimum inhibitory concentration (MIC) assays with E. coli (ATCC 25922), P. aeruginosa (SVB-B9), and S. aureus (ATCC 29213), in accordance with CLSI microbroth dilution protocols (Table 1). It is noteworthy, however, that the initial report of cathelicidin-PY’s isolation documented MIC assays performed in Luria Broth (LB). Furthermore, antifungal activity towards C. albicans was investigated.
(§2) Staphylococcus aureus ATCC 29213, Pseudomonas aeruginosa (SVB-B9) (type strain), and Escherichia coli ATCC 25,922 were grown in either non-cation-adjusted or cation-adjusted Mueller Hinton (MH) broth at 37 °C with shaking (200 rpm). MIC assays were performed in technical triplicate in accordance with the CLSI-recommended protocol. All assays were performed independently on three occasions, with the reported MIC defined as the lowest concentration for which agreement was observed consistently for all replicates.

The next assay relates to S. aureus (ATCC 29213). Type of assay: cell-based, Staphylococcus aureus. Particulars: read-out: Minimum Inhibitory Concentration.
Source text: as §1, §2

In another assay the test system is C. albicans (SC5314). Type of assay: cell-based, Candida albicans. The note with it: read-out: Minimum Inhibitory Concentration.
Source text: as §1
Antimicrobial susceptibility of Candida albicans SC5314 (type strain) was assessed by broth microdilution in RPMI 1640 media in accordance with the CLSI recommended protocols. All assays were performed independently on three occasions, with the reported MIC defined as the lowest concentration for which agreement was observed consistently for all replicates.

For `C[C@@H]1[C@H](O)[C@@H](C)/C=C/C=C/C=C/C=C/C=C/C=C/C=C/[C@H](O[C@@H]2O[C@H](C)[C@@H](O)[C@H](N)[C@@H]2O)C[C@@H]2O[C@](O)(C[C@@H](O)C[C@@H](O)[C@H](O)CC[C@@H](O)C[C@@H](O)CC(=O)O[C@H]1C)C[C@H](O)[C@H]2C(=O)O` [A, Amphotericin B, reference compound], the MIC is 2 µM (≈ 1.85 µg/mL) with P. aeruginosa (SVB-B9) (Pseudomonas aeruginosa, P. aeruginosa SVB-B9 type strain, cation-adjusted Mueller-Hinton broth (CAMHB), 37 °C, technical triplicate, three independent occasions, read-out: Minimum Inhibitory Concentration); greater than 64 µM with S. aureus (ATCC 29213) (S. aureus ATCC 29213, non-cation-adjusted Mueller-Hinton broth (MHB), 37 °C, technical triplicate, three independent occasions); greater than 64 µM with S. aureus (ATCC 29213) (Staphylococcus aureus, ATCC29213, S. aureus ATCC 29213, cation-adjusted Mueller-Hinton broth (CAMHB), 37 °C, technical triplicate, three independent occasions); 1 µM (≈ 0.924 µg/mL) in the assay with C. albicans (SC5314) (Candida albicans, C. albicans SC5314 type strain, RPMI 1640 media, three independent occasions).
With `CC[C@H](C)[C@@H]1NC(=O)[C@H](Cc2c[nH]cn2)NC(=O)[C@H](CO)NC(=O)[C@H]([C@@H](C)O)NC(=O)[C@H]([C@@H](C)CC)NC(=O)[C@H](C(C)C)NC(=O)[C@H]([C@@H](C)O)NC(=O)[C@H](CCCNC(=N)N)NC(=O)[C@H](CC(C)C)NC(=O)[C@H](CCCCN)NC(=O)[C@H](CCC(=O)O)NC(=O)[C@H](CCCCN)NC(=O)[C@H](CC(C)C)NC(=O)[C@H](CCCCN)NC(=O)[C@@H]2CSSC[C@H](NC(=O)[C@H](CCCCN)NC(=O)[C@H](CCCNC(=N)N)NC(=O)CNC(=O)[C@H](CCC(N)=O)NC(=O)[C@@H]3CCCN3C(=O)[C@H](CCCNC(=N)N)NC(=O)[C@H](CC(C)C)NC(=O)[C@H](C(C)C)NC(=O)[C@H](CCCCN)NC(=O)[C@H](CC(=O)O)NC1=O)C(=O)N[C@@H](CC(N)=O)C(=O)N[C@@H](Cc1ccccc1)C(=O)N[C@@H](CC(C)C)C(=O)N2` [Compound 3] (cyclo(CKLKEKLRTVITSHIDKVLRPQGRKCNFL); disulfide 1-26), the MIC with S. aureus (ATCC 29213) (ATCC 29213) and with C. albicans (SC5314) (SC5314) was greater than 64 µM in each case.
In the case of `CC[C@H](C)[C@H](NC(=O)[C@H](Cc1c[nH]cn1)NC(=O)[C@H](CO)NC(=O)[C@@H](NC(=O)[C@@H](NC(=O)[C@@H](NC(=O)[C@@H](NC(=O)[C@H](CCCNC(=N)N)NC(=O)[C@H](CC(C)C)NC(=O)[C@H](CCCCN)NC(=O)[C@H](CCC(=O)O)NC(=O)[C@H](CCCCN)NC(=O)[C@H](CC(C)C)NC(=O)[C@H](CCCCN)NC(=O)[C@@H]1CCCCNC(=O)CC[C@H](NC(=O)[C@H](CCCCN)NC(=O)[C@@H](N)CCCNC(=N)N)C(=O)N[C@@H](CC(N)=O)C(=O)N[C@@H](Cc2ccccc2)C(=O)N[C@@H](CC(C)C)C(=O)N1)[C@@H](C)O)C(C)C)[C@@H](C)CC)[C@@H](C)O)C(=O)N[C@@H](CC(=O)O)C(=O)N[C@@H](CCCCN)C(=O)N[C@H](C(=O)N[C@@H](CC(C)C)C(=O)N[C@@H](CCCNC(=N)N)C(=O)N1CCC[C@H]1C(=O)N[C@@H](CCC(N)=O)C(=O)NCC(=O)O)C(C)C` [Compound 4] (H-RKENFLKKLKEKLRTVITSHIDKVLRPQG-OH; lactam 3-7), the MIC in the assay with S. aureus (ATCC 29213) (ATCC 29213) and in the assay on C. albicans (SC5314) (SC5314) was greater than 64 µM each time.
In the case of `CC[C@H](C)[C@H](NC(=O)[C@H](Cc1c[nH]cn1)NC(=O)[C@H](CO)NC(=O)[C@@H](NC(=O)[C@@H](NC(=O)[C@@H](NC(=O)[C@@H](NC(=O)[C@H](CCCNC(=N)N)NC(=O)[C@H](CC(C)C)NC(=O)[C@H](CCCCN)NC(=O)[C@H](CCC(=O)O)NC(=O)[C@H](CCCCN)NC(=O)[C@H](CC(C)C)NC(=O)[C@H](CCCCN)NC(=O)[C@@H]1CCCCNC(=O)C[C@H](NC(=O)[C@H](CCCCN)NC(=O)[C@@H](N)CCCNC(=N)N)C(=O)N[C@@H](CC(N)=O)C(=O)N[C@@H](Cc2ccccc2)C(=O)N[C@@H](CC(C)C)C(=O)N1)[C@@H](C)O)C(C)C)[C@@H](C)CC)[C@@H](C)O)C(=O)N[C@@H](CC(=O)O)C(=O)N[C@@H](CCCCN)C(=O)N[C@H](C(=O)N[C@@H](CC(C)C)C(=O)N[C@@H](CCCNC(=N)N)C(=O)N1CCC[C@H]1C(=O)N[C@@H](CCC(N)=O)C(=O)NCC(=O)O)C(C)C` [Compound 5] (H-RKDNFLKKLKEKLRTVITSHIDKVLRPQG-OH; lactam 3-7), the MIC in the assay on S. aureus (ATCC 29213) (ATCC 29213) and in the assay on C. albicans (SC5314) (SC5314) was greater than 64 µM in each case.
As for `CC[C@H](C)[C@H](NC(=O)[C@H](Cc1c[nH]cn1)NC(=O)[C@H](CO)NC(=O)[C@@H](NC(=O)[C@@H](NC(=O)[C@@H](NC(=O)[C@@H](NC(=O)[C@H](CCCNC(=N)N)NC(=O)[C@H](CC(C)C)NC(=O)[C@H](CCCCN)NC(=O)[C@H](CCC(=O)O)NC(=O)[C@H](CCCCN)NC(=O)[C@H](CC(C)C)NC(=O)[C@H](CCCCN)NC(=O)[C@@H]1CCC(=O)NCCCC[C@H](NC(=O)[C@H](CCCCN)NC(=O)[C@@H](N)CCCNC(=N)N)C(=O)N[C@@H](CC(N)=O)C(=O)N[C@@H](Cc2ccccc2)C(=O)N[C@@H](CC(C)C)C(=O)N1)[C@@H](C)O)C(C)C)[C@@H](C)CC)[C@@H](C)O)C(=O)N[C@@H](CC(=O)O)C(=O)N[C@@H](CCCCN)C(=O)N[C@H](C(=O)N[C@@H](CC(C)C)C(=O)N[C@@H](CCCNC(=N)N)C(=O)N1CCC[C@H]1C(=O)N[C@@H](CCC(N)=O)C(=O)NCC(=O)O)C(C)C` [Compound 6] (H-RKKNFLEKLKEKLRTVITSHIDKVLRPQG-OH; lactam 3-7), the “Minimum Inhibitory Concentration” value with P. aeruginosa (SVB-B9) lay within 4 to 8 µM. The MIC in the assay with S. aureus (ATCC 29213) (ATCC 29213) and in the assay with C. albicans (SC5314) (SC5314) was greater than 64 µM in each case.
On to `CC[C@H](C)[C@H](NC(=O)[C@H](Cc1c[nH]cn1)NC(=O)[C@H](CO)NC(=O)[C@@H](NC(=O)[C@@H](NC(=O)[C@@H](NC(=O)[C@@H](NC(=O)[C@H](CCCNC(=N)N)NC(=O)[C@H](CC(C)C)NC(=O)[C@H](CCCCN)NC(=O)[C@H](CCC(=O)O)NC(=O)[C@H](CCCCN)NC(=O)[C@H](CC(C)C)NC(=O)[C@H](CCCCN)NC(=O)[C@@H]1CC(=O)NCCCC[C@H](NC(=O)[C@H](CCCCN)NC(=O)[C@@H](N)CCCNC(=N)N)C(=O)N[C@@H](CC(N)=O)C(=O)N[C@@H](Cc2ccccc2)C(=O)N[C@@H](CC(C)C)C(=O)N1)[C@@H](C)O)C(C)C)[C@@H](C)CC)[C@@H](C)O)C(=O)N[C@@H](CC(=O)O)C(=O)N[C@@H](CCCCN)C(=O)N[C@H](C(=O)N[C@@H](CC(C)C)C(=O)N[C@@H](CCCNC(=N)N)C(=O)N1CCC[C@H]1C(=O)N[C@@H](CCC(N)=O)C(=O)NCC(=O)O)C(C)C` [Compound 7] (H-RKKNFLDKLKEKLRTVITSHIDKVLRPQG-OH; lactam 3-7), for which the MIC in the assay on S. aureus (ATCC 29213) (ATCC 29213) and with C. albicans (SC5314) (SC5314) was greater than 64 µM throughout.
In the case of `CC[C@H](C)[C@H](NC(=O)[C@H](Cc1c[nH]cn1)NC(=O)[C@H](CO)NC(=O)[C@@H](NC(=O)[C@@H](NC(=O)[C@@H](NC(=O)[C@@H](NC(=O)[C@H](CCCNC(=N)N)NC(=O)[C@H](CC(C)C)NC(=O)[C@H](CCCCN)NC(=O)[C@H](CCC(=O)O)NC(=O)[C@H](CCCCN)NC(=O)[C@H](CC(C)C)NC(=O)[C@H](CCCCN)NC(=O)[C@@H]1CCNC(=O)C[C@H](NC(=O)[C@H](CCCCN)NC(=O)[C@@H](N)CCCNC(=N)N)C(=O)N[C@@H](CC(N)=O)C(=O)N[C@@H](Cc2ccccc2)C(=O)N[C@@H](CC(C)C)C(=O)N1)[C@@H](C)O)C(C)C)[C@@H](C)CC)[C@@H](C)O)C(=O)N[C@@H](CC(=O)O)C(=O)N[C@@H](CCCCN)C(=O)N[C@H](C(=O)N[C@@H](CC(C)C)C(=O)N[C@@H](CCCNC(=N)N)C(=O)N1CCC[C@H]1C(=O)N[C@@H](CCC(N)=O)C(=O)NCC(=O)O)C(C)C` [Compound 8] (H-RKDNFL[Dab]KLKEKLRTVITSHIDKVLRPQG-OH; lactam 3-7), the “Minimum Inhibitory Concentration” value in the assay with P. aeruginosa (SVB-B9) was 4 to 8 µM. Also, the MIC in the assay on S. aureus (ATCC 29213) (ATCC 29213) and in the assay with C. albicans (SC5314) (SC5314) was greater than 64 µM in each case.
Regarding `CC[C@H](C)[C@H](NC(=O)[C@H](Cc1c[nH]cn1)NC(=O)[C@H](CO)NC(=O)[C@@H](NC(=O)[C@@H](NC(=O)[C@@H](NC(=O)[C@@H](NC(=O)[C@H](CCCNC(=N)N)NC(=O)[C@H](CC(C)C)NC(=O)[C@H](CCCCN)NC(=O)[C@H](CCC(=O)O)NC(=O)[C@H](CCCCN)NC(=O)[C@H](CC(C)C)NC(=O)[C@H](CCCCN)NC(=O)[C@@H]1CCNC(=O)CC[C@H](NC(=O)[C@H](CCCCN)NC(=O)[C@@H](N)CCCNC(=N)N)C(=O)N[C@@H](CC(N)=O)C(=O)N[C@@H](Cc2ccccc2)C(=O)N[C@@H](CC(C)C)C(=O)N1)[C@@H](C)O)C(C)C)[C@@H](C)CC)[C@@H](C)O)C(=O)N[C@@H](CC(=O)O)C(=O)N[C@@H](CCCCN)C(=O)N[C@H](C(=O)N[C@@H](CC(C)C)C(=O)N[C@@H](CCCNC(=N)N)C(=O)N1CCC[C@H]1C(=O)N[C@@H](CCC(N)=O)C(=O)NCC(=O)O)C(C)C` [Compound 9] (H-RKENFL[Dab]KLKEKLRTVITSHIDKVLRPQG-OH; lactam 3-7), the MIC with S. aureus (ATCC 29213) (ATCC 29213) and in the assay with C. albicans (SC5314) (SC5314) was greater than 64 µM throughout.
On to “RKANFLAKLKEKLRTVITSHIDKVLRPQG [Compound 2]”, for which the “Minimum Inhibitory Concentration” value in the assay with P. aeruginosa (SVB-B9) is 4 to 8 µM. The MIC in the assay with S. aureus (ATCC 29213) (ATCC 29213) and with C. albicans (SC5314) (SC5314) was greater than 64 µM each time.
